Source: patent US10047078B2, “Aminothiazole compounds” (National Health Research Institutes, priority 2016, dated 2018)

Legend:
[1] = tested on: xenografts FLT3-ITD-D835Y model; test: Xenograft efficacy, FLT3-ITD-D835Y model; format: in vivo; conditions: FLT3-ITD-D835Y xenograft in nude mice, PO 25 mg/kg
Protocol: (§1) Male nude mice (Nu-Fox1^nu) of 8 weeks old were purchased from BioLASCO (Taipei, Taiwan, R.O.C.). Human colorectal Colo205, pancreatic Mia-PaCa 2 tumor cells or MOLM-13, 32D-ITD/D835Y leukemia cells were inoculated subcutaneously at 1×10^6 cells each in the nude mice. All human cancer cells were detected as free of Mycoplasma spp before they were injected into animals. The tumor cells grow as xenograft tumors and the tumor size reached approximately 200-250 mm^3 in the nude mice ready for dose treatments. Test compounds were dissolved in 20% 2-hydroxypropy-β-cyclodextrin individually for oral gavage administrations to the nude mice. The tumor-bearing mice were treated with test compounds at various doses, 5 times a week for 2 weeks. Tumor sizes were measured by an electronic caliper and calculated with the formula: tumor size=length×width^2/2. Tumor size and animal body weight were measured twice a week before and after the tumor cell inoculation throughout the observation period. Uses of animals and experimental procedures thereof were approved by the Institutional Animal Care and Use Committee (IACUC) of the National Health Research Institutes.

[2] = Pharmacokinetics and oral bioavailability in mice; conditions: for AUC(0-inf) / bioavailability: male, ICR, mouse, plasma
Protocol: (§7) Male ICR mice weighing 25-35 g each were obtained from BioLASCO (Taiwan Co., Ltd, Ilan, Taiwan). The animal studies were performed according to the National Health Research Institutes (NHRI) institutional animal care and committee-approved procedures. […] A single dose at 10 mg/kg of each of these four compounds was administered orally (PO) to a total of 27 male mice. Each mouse was given 100 mL of the IV dosing solution by intravenous tail-vein injection and 200 mL of the PO dosing solution by oral gavage. Animals that received the IV dose were not fasted and that received the PO dose were fasted overnight prior to dosing. At 0 (immediately before dosing), 2 (IV only), 5 (IV only), 15 and 30 min and at 1, 2, 4, 6, 8, 16 and 24 h after dosing, blood (˜500 mL) was collected from groups of 3 mice at each time point by cardio puncture and stored in ice (0-4° C.). Ethylenediaminetetraacetic acid (EDTA) was used as the anticoagulant. Plasma was separated from the blood by centrifugation (3000 rpm for 15 minutes at 4° C. in a Beckman Model Allegra 6R centrifuge) and stored in a freezer (−20° C.). Control plasma was obtained from mice receiving no compound for use of constructing the standard curve and for the preparation of quality control (QC) samples. All samples were analyzed for the parent compound by LC-MS/MS.
(§8) Oral bioavailability, presented as a percentage (F %), was calculated from dividing the average area under the curve (AUC) value of a compound after PO dosing by the average AUC value of the compound after IV dosing following dose normalization.

[3] = tested on: Mia-paca2 tumor model; test: Xenograft efficacy, Mia-paca2 tumor model; format: in vivo, nude mice; conditions: PO 25 mg/kg
Protocol: as §1

[4] = tested on: xenografts FLT3-ITD-D835Y nude mice; test: In vivo toxicity study, FLT3-ITD-D835Y model; conditions: PO 25 mg/kg once daily; for Mortality (nude mice n = 8): 5 on 2 off × 2
Protocol: as §1
(§2) Compounds of formula (I) were tested in animals for their in vivo efficacy following the procedure described in EXAMPLE 24. Nine weeks old athymic nu/nu nude mice were administered orally at a once daily dose of 25, 50, 100, or 150 mg/kg on days 1-5 and 8-12.

[5] = tested on: xenografts Mia-paca2 nude mice; test: In vivo toxicity study, Mia-paca2 model; conditions: PO 25 mg/kg once daily; for Mortality (nude mice n = 6): 5 on 2 off × 2
Protocol: as §1, with “All human cancer cells were detected as free of Mycoplasma spp before they were injected into animals.” left out
(§3) Nine weeks old athymic nu/nu nude mice were administered orally at a once daily dose of 25, 50, 100, or 150 mg/kg on days 1-5 and 8-12.

[6] = tested on: xenografts MOLM-13 nude mice; test: In vivo toxicity study, MOLM-13 model; conditions: for Mortality (nude mice n = 6 or 7): 5 on 2 off × 2; for Tolerability: PO once daily, Compound 2 at 25 and 50, Compound 4 at 150 mg/kg
Protocol: as §1, §2

[7] = tested on: xenografts colo205 nude mice; test: In vivo toxicity study, colo205 model; conditions: for Mortality (nude mice n = 6): 5 on 2 off × 2; for Tolerability: PO once daily, Compounds 1, 2, 3, 4, 6 at 50, 50, 100, 150 and 25 mg/kg
Protocol: as §1, with “All human cancer cells were detected as free of Mycoplasma spp before they were injected into animals.” left out
as §3

[8] = tested on: Colo205 xenografts; test: Xenograft efficacy, Colo205 model; format: in vivo; conditions: Colo205 xenografts in nude mice, 5 times a week for 2 weeks
Protocol: as §1

[9] = tested on: MOLM-13 xenografts; test: Xenograft efficacy, MOLM-13 model; format: in vivo, nude mice; conditions: starting tumor size ~250 mm^3
Protocol: as §1

[10] = tested on: 32D-ITD/F691L cells; test: MTS cell viability, 32D cells expressing FLT3-ITD mutant; format: cell-based, Murine; conditions: 72-h incubation
From the text: (§4) The five leukemic 32D cell lines were purchased from American Type Culture Collection (ATCC, Manassas, Va., USA). Murine pro-B lymphocyte 32D cell lines were stably transfected with expression vectors that encoded human FLT3 containing an ITD mutation (32D-ITD cells), ITD and D835Y (32D-ITD/D835Y cells), ITD and D835V (32D-ITD/D835V cells), ITD and D835F (32D-ITD/D835F cells), and ITD and F691L (32D-ITD/F691L cells) mutations, which lead to constitutive activation of the FLT3 downstream signaling proteins. The cell viability was assessed with the MTS assay described in PLoS One, 2014, 9, e97116. 32D-ITD/D835Y, 32D-ITD/D835V, 32D-ITD/D835F, 32D-ITD/F691L, and 32D-ITD/F691I cells were seeded in 96-well plates at 1×10^4 cells/mL (100 μL per well) for 24-h incubation. Test compounds (at various concentrations in dimethyl sulfoxide (DMSO) were subsequently added to the culture medium for 72-h incubation. The cell viability was determined by the MTS assay (Promega, Madison, Wis., USA).

[11] = tested on: 32D-ITD/F691I cells; test: as above; format: cell-based, Murine; conditions: 72-h incubation
From the text: as §4

[12] = tested on: 32D-ITD/D835F cells; test: as above; format: cell-based, Murine; conditions: 72-h incubation
From the text: as §4

[13] = target: DDR1 (Homo sapiens, UniProt Q08345); test: SelectScreen biochemical kinase profiling; format: binding; conditions: 100 nM, read-out: Inhibition (% of control) at 100 nM
Protocol: (§5) Kinase inhibition data were obtained from SelectScreen® Biochemical Kinase Profiling Service.
(§6) More specifically, test compounds were screened in 160 nL of a 1% DMSO solution in the well of a 384-well plate; kinase/antibody mixtures (8 μL) were diluted to a 2-fold working concentration in an appropriate kinase buffer (3.84 μL) and a 4-fold AlexaFluor® labeled tracer (4 μL) was prepared in the kinase buffer; incubation of test solutions was conducted at room is temperature for 60 minutes; and readout on a fluorescence plate reader was recorded and analyzed.

[14] = target: PDGFR B (Homo sapiens, UniProt P09619); test: SelectScreen biochemical kinase profiling; format: binding; conditions: 100 nM, read-out: Inhibition (% of control) at 100 nM
Protocol: as §5, §6

[15] = target: PDGFR A (Homo sapiens, UniProt P16234); test: SelectScreen biochemical kinase profiling; format: binding; conditions: 100 nM, read-out: Inhibition (% of control) at 100 nM
Protocol: as §5, §6

[16] = target: RET (Homo sapiens, UniProt P07949); test: SelectScreen biochemical kinase profiling; format: binding; conditions: 100 nM, read-out: Inhibition (% of control) at 100 nM
Protocol: as §5, §6

[17] = target: TRK A (Homo sapiens, UniProt P04629); test: SelectScreen biochemical kinase profiling; format: binding; conditions: 100 nM, read-out: Inhibition (% of control) at 100 nM
Protocol: as §5, §6

[18] = target: TRK B (Homo sapiens, UniProt Q16620); test: SelectScreen biochemical kinase profiling; format: binding; conditions: 100 nM, read-out: Inhibition (% of control) at 100 nM
Protocol: as §5, §6

[19] = target: SRC (Homo sapiens, UniProt P12931); test: SelectScreen biochemical kinase profiling; format: binding; conditions: 100 nM, read-out: Inhibition (% of control) at 100 nM
Protocol: as §5, §6

[20] = target: KIT (Homo sapiens, UniProt P10721); test: SelectScreen biochemical kinase profiling; format: binding; conditions: 100 nM, read-out: Inhibition (% of control) at 100 nM
Protocol: as §5, §6

[21] = in vivo; conditions: male, ICR, mouse
Protocol: as §7, §8

[22] = target: ABL1 T315I (Homo sapiens, UniProt P00519, T315I); test: SelectScreen biochemical kinase profiling; format: binding; conditions: 100 nM, read-out: Inhibition (% of control) at 100 nM
Protocol: as §5, §6

Sequence of TRK A (P04629 33-796): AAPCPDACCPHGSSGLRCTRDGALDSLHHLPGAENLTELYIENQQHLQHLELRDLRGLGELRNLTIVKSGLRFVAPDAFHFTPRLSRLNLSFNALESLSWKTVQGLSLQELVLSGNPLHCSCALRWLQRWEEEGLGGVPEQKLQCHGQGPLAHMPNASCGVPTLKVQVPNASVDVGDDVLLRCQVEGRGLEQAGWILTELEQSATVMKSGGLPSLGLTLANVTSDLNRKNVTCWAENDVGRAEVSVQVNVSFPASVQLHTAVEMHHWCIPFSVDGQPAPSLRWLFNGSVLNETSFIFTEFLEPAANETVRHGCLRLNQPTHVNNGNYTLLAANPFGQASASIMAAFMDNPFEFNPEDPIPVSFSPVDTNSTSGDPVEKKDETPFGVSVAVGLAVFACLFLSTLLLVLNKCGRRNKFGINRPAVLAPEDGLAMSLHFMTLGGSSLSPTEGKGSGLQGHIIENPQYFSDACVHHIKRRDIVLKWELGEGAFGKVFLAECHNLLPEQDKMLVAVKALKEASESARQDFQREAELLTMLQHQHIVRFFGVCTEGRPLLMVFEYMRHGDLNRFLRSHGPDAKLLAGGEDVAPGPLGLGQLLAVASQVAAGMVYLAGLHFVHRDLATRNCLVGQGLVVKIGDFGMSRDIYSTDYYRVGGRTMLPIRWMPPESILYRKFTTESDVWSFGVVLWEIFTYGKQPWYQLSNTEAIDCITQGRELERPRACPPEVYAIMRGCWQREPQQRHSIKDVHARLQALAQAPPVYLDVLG
Sequence of KIT (P10721 26-976): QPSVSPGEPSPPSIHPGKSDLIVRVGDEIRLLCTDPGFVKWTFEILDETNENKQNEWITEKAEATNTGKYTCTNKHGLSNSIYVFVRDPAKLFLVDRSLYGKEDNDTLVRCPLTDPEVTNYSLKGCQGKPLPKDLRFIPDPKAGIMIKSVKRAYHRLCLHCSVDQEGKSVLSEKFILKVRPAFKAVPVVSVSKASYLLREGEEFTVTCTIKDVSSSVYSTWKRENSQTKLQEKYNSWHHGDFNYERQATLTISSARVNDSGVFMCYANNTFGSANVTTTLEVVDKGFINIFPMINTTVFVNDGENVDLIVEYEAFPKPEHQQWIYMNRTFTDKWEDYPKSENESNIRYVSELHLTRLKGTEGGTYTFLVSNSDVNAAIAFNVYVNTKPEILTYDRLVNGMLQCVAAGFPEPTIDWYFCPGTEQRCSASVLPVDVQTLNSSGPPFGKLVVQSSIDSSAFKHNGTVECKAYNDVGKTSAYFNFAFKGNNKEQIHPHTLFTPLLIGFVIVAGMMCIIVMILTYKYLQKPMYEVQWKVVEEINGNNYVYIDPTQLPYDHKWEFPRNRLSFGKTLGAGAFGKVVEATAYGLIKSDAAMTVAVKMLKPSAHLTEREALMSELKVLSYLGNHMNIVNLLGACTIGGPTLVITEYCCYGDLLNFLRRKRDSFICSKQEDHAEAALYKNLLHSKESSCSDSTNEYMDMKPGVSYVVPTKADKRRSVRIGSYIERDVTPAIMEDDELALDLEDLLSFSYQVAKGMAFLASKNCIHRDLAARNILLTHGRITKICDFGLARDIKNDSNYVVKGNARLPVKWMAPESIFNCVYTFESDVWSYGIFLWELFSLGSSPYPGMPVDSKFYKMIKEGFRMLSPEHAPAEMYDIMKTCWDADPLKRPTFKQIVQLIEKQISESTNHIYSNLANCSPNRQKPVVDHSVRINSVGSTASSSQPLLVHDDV
Sequence of DDR1 (Q08345 19-913): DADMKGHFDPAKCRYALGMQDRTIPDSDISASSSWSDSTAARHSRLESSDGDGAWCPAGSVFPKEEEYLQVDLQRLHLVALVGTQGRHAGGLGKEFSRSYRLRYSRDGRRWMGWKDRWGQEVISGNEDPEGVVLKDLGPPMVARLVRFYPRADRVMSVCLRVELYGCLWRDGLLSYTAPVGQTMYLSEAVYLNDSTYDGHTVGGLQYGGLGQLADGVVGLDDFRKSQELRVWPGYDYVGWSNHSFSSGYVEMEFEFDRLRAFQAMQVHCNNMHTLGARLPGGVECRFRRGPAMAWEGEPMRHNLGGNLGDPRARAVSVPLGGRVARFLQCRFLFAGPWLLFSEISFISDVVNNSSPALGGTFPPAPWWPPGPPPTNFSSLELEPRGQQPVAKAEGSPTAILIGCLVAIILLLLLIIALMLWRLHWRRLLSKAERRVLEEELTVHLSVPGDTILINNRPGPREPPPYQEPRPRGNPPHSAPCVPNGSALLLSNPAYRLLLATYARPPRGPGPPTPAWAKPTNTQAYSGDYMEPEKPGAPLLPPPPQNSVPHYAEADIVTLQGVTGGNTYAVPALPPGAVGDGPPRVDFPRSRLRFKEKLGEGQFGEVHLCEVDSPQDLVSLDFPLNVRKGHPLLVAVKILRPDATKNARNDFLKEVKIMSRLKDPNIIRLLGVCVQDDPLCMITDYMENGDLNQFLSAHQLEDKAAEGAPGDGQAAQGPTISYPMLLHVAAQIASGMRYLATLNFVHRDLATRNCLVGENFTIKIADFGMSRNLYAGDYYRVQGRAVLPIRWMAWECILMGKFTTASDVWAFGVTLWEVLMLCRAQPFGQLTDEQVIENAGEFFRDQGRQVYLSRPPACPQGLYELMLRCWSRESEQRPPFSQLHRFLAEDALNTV
Sequence of SRC (P12931 whole entry): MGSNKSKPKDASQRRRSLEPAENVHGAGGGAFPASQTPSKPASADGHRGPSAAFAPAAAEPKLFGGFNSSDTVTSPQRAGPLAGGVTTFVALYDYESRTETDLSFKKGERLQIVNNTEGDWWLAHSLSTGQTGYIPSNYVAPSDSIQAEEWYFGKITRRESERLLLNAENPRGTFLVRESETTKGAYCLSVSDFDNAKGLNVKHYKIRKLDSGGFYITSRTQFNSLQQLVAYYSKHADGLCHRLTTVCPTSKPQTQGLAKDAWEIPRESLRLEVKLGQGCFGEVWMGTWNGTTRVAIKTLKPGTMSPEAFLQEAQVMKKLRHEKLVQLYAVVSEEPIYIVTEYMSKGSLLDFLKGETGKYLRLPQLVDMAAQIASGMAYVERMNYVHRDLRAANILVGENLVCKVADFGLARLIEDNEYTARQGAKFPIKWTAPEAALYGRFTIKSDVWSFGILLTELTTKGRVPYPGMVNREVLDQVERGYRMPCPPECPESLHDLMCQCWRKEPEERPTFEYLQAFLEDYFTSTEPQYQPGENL
Sequence of PDGFR A (P16234 24-1089): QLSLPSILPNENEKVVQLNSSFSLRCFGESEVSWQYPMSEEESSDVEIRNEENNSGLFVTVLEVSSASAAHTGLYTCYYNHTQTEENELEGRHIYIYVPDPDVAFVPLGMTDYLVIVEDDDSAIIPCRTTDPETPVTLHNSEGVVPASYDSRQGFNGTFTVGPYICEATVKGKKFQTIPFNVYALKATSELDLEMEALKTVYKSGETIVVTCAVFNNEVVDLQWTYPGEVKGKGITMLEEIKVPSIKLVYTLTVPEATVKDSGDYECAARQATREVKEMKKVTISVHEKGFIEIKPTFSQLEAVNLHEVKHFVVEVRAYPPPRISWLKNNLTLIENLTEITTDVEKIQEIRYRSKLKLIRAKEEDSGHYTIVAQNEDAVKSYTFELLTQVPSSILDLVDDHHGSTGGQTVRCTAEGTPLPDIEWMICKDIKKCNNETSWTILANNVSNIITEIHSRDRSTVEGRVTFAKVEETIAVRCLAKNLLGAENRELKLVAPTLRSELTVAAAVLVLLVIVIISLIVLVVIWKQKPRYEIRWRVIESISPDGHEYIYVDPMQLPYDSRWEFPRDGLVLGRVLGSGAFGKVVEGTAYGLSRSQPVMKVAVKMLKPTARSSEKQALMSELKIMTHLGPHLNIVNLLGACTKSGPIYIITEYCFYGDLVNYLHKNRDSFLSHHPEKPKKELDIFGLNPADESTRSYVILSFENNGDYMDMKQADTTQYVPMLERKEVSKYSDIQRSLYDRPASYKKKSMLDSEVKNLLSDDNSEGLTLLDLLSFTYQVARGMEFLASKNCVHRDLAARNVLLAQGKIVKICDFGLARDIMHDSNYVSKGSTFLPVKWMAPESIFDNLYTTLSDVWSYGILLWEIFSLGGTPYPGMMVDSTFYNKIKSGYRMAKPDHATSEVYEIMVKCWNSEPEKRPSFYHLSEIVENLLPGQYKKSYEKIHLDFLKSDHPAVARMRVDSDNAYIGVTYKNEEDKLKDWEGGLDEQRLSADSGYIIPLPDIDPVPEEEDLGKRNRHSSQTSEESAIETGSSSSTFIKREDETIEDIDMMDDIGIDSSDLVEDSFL
Sequence of TRK B (Q16620 32-822): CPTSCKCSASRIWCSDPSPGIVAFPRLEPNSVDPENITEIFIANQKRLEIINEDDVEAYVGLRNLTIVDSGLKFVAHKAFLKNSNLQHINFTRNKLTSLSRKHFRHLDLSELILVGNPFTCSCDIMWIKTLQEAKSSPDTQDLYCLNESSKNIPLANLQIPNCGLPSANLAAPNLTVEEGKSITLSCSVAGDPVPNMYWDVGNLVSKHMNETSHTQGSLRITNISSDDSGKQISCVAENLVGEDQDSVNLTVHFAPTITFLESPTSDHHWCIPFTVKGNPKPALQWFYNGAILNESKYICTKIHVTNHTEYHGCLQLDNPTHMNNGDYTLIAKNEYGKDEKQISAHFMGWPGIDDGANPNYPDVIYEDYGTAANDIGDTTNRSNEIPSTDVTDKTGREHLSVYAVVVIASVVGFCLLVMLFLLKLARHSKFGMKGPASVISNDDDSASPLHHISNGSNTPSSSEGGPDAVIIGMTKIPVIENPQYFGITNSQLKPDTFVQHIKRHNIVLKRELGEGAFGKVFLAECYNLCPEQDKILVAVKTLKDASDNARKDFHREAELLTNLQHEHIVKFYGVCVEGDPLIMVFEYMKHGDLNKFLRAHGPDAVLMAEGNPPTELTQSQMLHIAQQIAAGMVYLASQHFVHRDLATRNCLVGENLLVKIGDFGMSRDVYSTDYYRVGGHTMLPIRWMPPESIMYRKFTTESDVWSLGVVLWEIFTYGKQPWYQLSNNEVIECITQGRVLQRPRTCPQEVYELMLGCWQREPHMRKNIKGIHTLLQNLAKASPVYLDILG

Compound	Day 12 tumor regression [1] [%]	AUC(0-inf) ([2]; iv, 2 mg/kg) [ng·h/mL]	AUC(0-inf) ([2]; po, 10 mg/kg) [ng·h/mL]	bioavailability ([2]; po, 10 mg/kg) [%]	Day 18 TGI [3] [%]	Tolerability [4]	Mortality (nude mice n = 8) [4]	Tolerability [5]	Mortality (nude mice n = 6) [5]	Tolerability [6]	Tolerability [7]	GI50 ([10]; Mus musculus, 32D, 72 h) [nM]	GI50 ([11]; Mus musculus, 32D, 72 h) [nM]	GI50 [12] [nM]	GI50 ([12]; Mus musculus, 32D, 72 h) [nM]	inhibition at 0.1 µM [13] [%]	inhibition at 0.1 µM [14] [%]	inhibition at 0.1 µM [15] [%]	inhibition at 0.1 µM [16] [%]	inhibition at 0.1 µM [17] [%]	further results
CCc1cc(NC(=O)Nc2ccc(-c3cnc(Nc4cc(N5CCN(CCF)CC5)ncn4)s3)cc2)no1 [Compound 5, 1-(5-Ethylisoxazol-3-yl)-3-(4-(2-((6-(4-(2-fluoroethyl)piperazin-1-yl)pyrimidin-4-yl)amino)thiazol-5-yl)phenyl)urea]	22	2720	8240	67	65	well tolerated	0/8 (25 mg/kg)	well tolerated	0/6 (25 mg/kg)												
CCc1cc(NC(=O)Nc2ccc(-c3cnc(Nc4cc(N5CCN(CCO)CC5)ncn4)s3)cc2)no1 [Compound 4, 1-(5-Ethylisoxazol-3-yl)-3-(4-(2-((6-(4-(2-hydroxyethyl)piperazin-1-yl)pyrimidin-4-yl)amino)thiazol-5-yl)phenyl)urea]										well tolerated	well tolerated	< 20	< 20	5.5	< 6						Mortality (nude mice n = 6 or 7) ([6]; PO 150 mg/kg once daily): 0/6; Mortality (nude mice n = 6) ([7]; PO 150 mg/kg once daily): 0/6 (150 mg/kg); Day 18 TGI ([8]; PO 150 mg/kg, 150 mg/kg): ~80%; Day 25 tumor size ([9]; PO 150 mpk): 193 mm^3 (150 mpk); GI50 [10]: 12 nM; GI50 [11]: 19 nM
CCc1cc(NC(=O)Nc2ccc(-c3cnc(Nc4cc(N5CCN(CC)CC5)ncn4)s3)cc2)no1 [Compound 2, 1-(5-Ethylisoxazol-3-yl)-3-(4-(2-((6-(4-ethylpiperazin-1-yl)pyrimidin-4-yl)amino)thiazol-5-yl)phenyl)urea]	34	1440	2800			well tolerated	0/8 (25 mg/kg)			well tolerated	well tolerated	14	158	5.8	< 6	80	80	89	94	60	Mortality (nude mice n = 6 or 7) ([6]; PO 25 or 50 mg/kg once daily): 0/6; Mortality (nude mice n = 6) ([7]; PO 50 mg/kg once daily): 0/6 (50 mg/kg); Day 18 TGI ([8]; PO 50 mg/kg, 50 mg/kg): ~80%; F (%) oral bioavailability ([2]; mice, PO 10 mg/kg vs IV 2 mg/kg, dose normalized): 38%; inhibition at 0.1 µM [18]: 72%; inhibition at 0.1 µM [19]: 79%; inhibition at 0.1 µM [20]: 67%; Day 25 tumor size ([9]; PO 25 mpk): 270 mm^3; Day 25 tumor size ([9]; PO 50 mpk): 53 mm^3
CCc1cc(NC(=O)Nc2ccc(-c3cnc(Nc4cc(N5CCN(CCF)CC5)nc(C)n4)s3)cc2)no1 [Compound 6, 1-(5-Ethylisoxazol-3-yl)-3-(4-(2-((6-(4-(2-fluoroethyl)piperazin-1-yl)-2-methylpyrimidin-4-yl)amino)thiazol-5-yl)phenyl)urea]					68			well tolerated	0/6 (25 mg/kg)		well tolerated										Mortality (nude mice n = 6) ([7]; PO 25 mg/kg once daily): 0/6 (25 mg/kg); Day 18 TGI ([8]; PO 25 mg/kg, 25 mg/kg): ~80%; AUC(0-inf) ([21]; iv, 2 mg/kg): 1840 ng·h/mL; AUC(0-inf) ([21]; po, 10 mg/kg): 7580 ng·h/mL; bioavailability ([21]; po, 10 mg/kg): 89%
CCc1cc(NC(=O)Nc2ccc(-c3cnc(Nc4cc(OCCN5CCOCC5)ncn4)s3)cc2)no1 [Compound 3, 1-(5-Ethylisoxazol-3-yl)-3-(4-(2-((6-(2-morpholinoethoxy)pyrimidin-4-yl)amino)thiazol-5-yl)phenyl)urea]		2070	11400	96							well tolerated					77	92	79	56	69	Mortality (nude mice n = 6) ([7]; PO 100 mg/kg once daily): 0/6 (100 mg/kg); Day 18 TGI ([8]; PO 100 mg/kg, 100 mg/kg): ~80%; inhibition at 0.1 µM [22]: 15%; inhibition at 0.1 µM [18]: 73%; inhibition at 0.1 µM [19]: 66%; inhibition at 0.1 µM [20]: 85%
